Laboratory results published in PMC10709440, “High-throughput ligand profile characterization in novel cell lines expressing seven heterologous insect olfactory receptors for the detection of volatile plant biomarkers” (Scientific Reports, 2023).
Read-outs that look alike come from different tables or passages of the source.

Tests used:
Drosophila OR10a = target: T1, Drosophila OR10a (Drosophila melanogaster, UniProt Q9VYZ1); assay: Calcium ion fluorescence (GCaMP6) assay, OR10a stable HEK293 cell line; type: cell-based; settings: for OR10a response (VUAA1-normalized) at 1 μM / OR10a response (VUAA1-normalized) at 10 μM / OR10a response (VUAA1-normalized) at 100 μM: OR10a cell line
T1 construct: expressed in transfected cells
T1 sequence (Q9VYZ1 1-406): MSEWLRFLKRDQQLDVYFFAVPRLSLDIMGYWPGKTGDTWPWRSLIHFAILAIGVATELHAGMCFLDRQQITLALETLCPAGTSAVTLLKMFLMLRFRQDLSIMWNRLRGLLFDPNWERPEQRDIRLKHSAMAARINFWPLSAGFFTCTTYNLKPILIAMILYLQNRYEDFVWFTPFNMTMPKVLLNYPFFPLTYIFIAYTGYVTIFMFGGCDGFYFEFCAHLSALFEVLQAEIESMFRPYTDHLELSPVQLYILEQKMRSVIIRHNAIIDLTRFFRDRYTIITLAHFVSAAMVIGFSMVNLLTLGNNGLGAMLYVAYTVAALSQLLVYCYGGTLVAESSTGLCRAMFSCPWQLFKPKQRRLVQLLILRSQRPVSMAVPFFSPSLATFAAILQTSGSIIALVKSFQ
T1 sequence (Q9VNB5 1-486 partner): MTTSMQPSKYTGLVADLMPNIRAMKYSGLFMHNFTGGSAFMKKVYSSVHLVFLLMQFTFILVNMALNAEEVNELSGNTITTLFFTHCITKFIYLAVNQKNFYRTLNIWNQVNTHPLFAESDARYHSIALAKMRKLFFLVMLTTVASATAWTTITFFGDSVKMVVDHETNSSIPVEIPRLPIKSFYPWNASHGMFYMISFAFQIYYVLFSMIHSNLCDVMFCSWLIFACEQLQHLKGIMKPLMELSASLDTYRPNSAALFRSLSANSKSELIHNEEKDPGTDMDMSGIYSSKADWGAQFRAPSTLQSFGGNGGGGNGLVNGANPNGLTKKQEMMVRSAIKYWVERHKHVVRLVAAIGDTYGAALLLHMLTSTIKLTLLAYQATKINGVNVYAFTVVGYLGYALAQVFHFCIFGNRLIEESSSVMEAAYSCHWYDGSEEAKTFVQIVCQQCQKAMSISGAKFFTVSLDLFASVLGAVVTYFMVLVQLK
Procedure, shortened: (§1)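 Responses are VUAA1-normalized ΔF: each VOC-evoked calcium signal, (FMAX−F0)/F0 over 30 s after injection, divided by the same line's mean 50 µM VUAA1 response. Cells were doxycycline-induced HEK293 with GCaMP6 and the cognate Drosophila OR, in HEPES buffer pH 7.3; ligands tested 0.01–100 μM.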

Drosophila OR13a = target: T2, Drosophila OR13a (Drosophila melanogaster, UniProt Q9VXL0); assay: Calcium ion fluorescence (GCaMP6) assay, OR13a stable HEK293 cell line; type: cell-based; settings: for OR13a response (VUAA1-normalized) at 1 μM / OR13a response (VUAA1-normalized) at 10 μM / OR13a response (VUAA1-normalized) at 100 μM: OR13a cell line
T2 construct: expressed in transfected cells
T2 sequence (Q9VXL0 1-418): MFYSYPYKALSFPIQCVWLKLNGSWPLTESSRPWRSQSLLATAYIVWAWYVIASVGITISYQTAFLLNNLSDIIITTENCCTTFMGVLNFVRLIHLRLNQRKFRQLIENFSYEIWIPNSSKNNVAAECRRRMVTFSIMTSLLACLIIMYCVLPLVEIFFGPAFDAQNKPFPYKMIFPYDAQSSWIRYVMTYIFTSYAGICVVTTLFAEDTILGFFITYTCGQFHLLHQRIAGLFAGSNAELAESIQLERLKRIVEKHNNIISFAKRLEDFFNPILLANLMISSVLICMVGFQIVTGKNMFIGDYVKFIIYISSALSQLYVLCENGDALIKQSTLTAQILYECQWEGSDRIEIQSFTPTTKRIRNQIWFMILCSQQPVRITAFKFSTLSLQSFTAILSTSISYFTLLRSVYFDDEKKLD
T2 sequence (Q9VNB5 1-486 partner): T1 sequence (Q9VNB5 1-486 partner)
Procedure, shortened: as §1

[1] = HEK293, read-out: OR10a Average response (VUAA1-normalized), 1 μM VOC, 50 μM VUAA1 = 1, responses not exceeding 0.05 considered 0
[2] = HEK293, read-out: OR10a Average response (VUAA1-normalized), 10 μM VOC, 50 μM VUAA1 = 1, responses not exceeding 0.05 considered 0
[3] = HEK293, read-out: OR10a Average response (VUAA1-normalized), 100 μM VOC, 50 μM VUAA1 = 1, responses not exceeding 0.05 considered 0
[4] = ligand concentration 1 (unit not given), threshold 0.05, below shown as 0
[5] = ligand concentration 10 (unit not given), threshold 0.05, below shown as 0
[6] = ligand concentration 100 (unit not given), threshold 0.05, below shown as 0
[7] = HEK293, read-out: OR13a Average response (VUAA1-normalized), 1 μM VOC, 50 μM VUAA1 = 1, responses not exceeding 0.05 considered 0
[8] = HEK293, read-out: OR13a Average response (VUAA1-normalized), 10 μM VOC, 50 μM VUAA1 = 1, responses not exceeding 0.05 considered 0
[9] = HEK293, read-out: OR13a Average response (VUAA1-normalized), 100 μM VOC, 50 μM VUAA1 = 1, responses not exceeding 0.05 considered 0
[10] = HEK293, 1 μM VOC, 50 μM VUAA1 = 1, responses not exceeding 0.05 considered 0, read-out: OR10a Average response (VUAA1-normalized)
[11] = HEK293, 10 μM VOC, 50 μM VUAA1 = 1, responses not exceeding 0.05 considered 0, read-out: OR10a Average response (VUAA1-normalized)
[12] = HEK293, 100 μM VOC, 50 μM VUAA1 = 1, responses not exceeding 0.05 considered 0, read-out: OR10a Average response (VUAA1-normalized)
[13] = ligand concentration 10 (unit not given), 0.05 threshold, values below shown as 0
[14] = HEK293, read-out: OR10a response (VUAA1-normalized response), VOC concentration 1 μM
[15] = HEK293, read-out: OR10a response (VUAA1-normalized response), VOC concentration 10 μM
[16] = HEK293, read-out: OR10a response (VUAA1-normalized response), VOC concentration 100 μM
[17] = HEK293, read-out: OR13a response (VUAA1-normalized response), VOC concentration 1 μM
[18] = HEK293, read-out: OR13a response (VUAA1-normalized response), VOC concentration 10 μM
[19] = HEK293, read-out: OR13a response (VUAA1-normalized response), VOC concentration 100 μM
[20] = concentration 1, normalized fluorescence change, values below 0.05 threshold given as 0
[21] = concentration 10, normalized fluorescence change, values below 0.05 threshold given as 0
[22] = concentration 100, normalized fluorescence change, values below 0.05 threshold given as 0
[23] = 1 μM VOC, 50 μM VUAA1 = 1, responses not exceeding 0.05 considered 0
[24] = 10 μM VOC, 50 μM VUAA1 = 1, responses not exceeding 0.05 considered 0
[25] = 100 μM VOC, 50 μM VUAA1 = 1, responses not exceeding 0.05 considered 0

SMILES | activation at 1 µM (Drosophila OR10a; [1]) [%] | activation at 10 µM (Drosophila OR10a; [2]) [%] | activation at 100 µM (Drosophila OR10a; [3]) [%] | OR10a response (VUAA1-normalized) at 1 μM (Drosophila OR10a; VOC concentration 1 μM) | OR10a response (VUAA1-normalized) at 10 μM (Drosophila OR10a; VOC concentration 10 μM) | OR10a response (VUAA1-normalized) at 100 μM (Drosophila OR10a; VOC concentration 100 μM) | DF norm AVERAGE OR10a (Drosophila OR10a; [4]) | DF norm AVERAGE OR10a (Drosophila OR10a; [5]) | DF norm AVERAGE OR10a (Drosophila OR10a; [6]) | activation at 1 µM (Drosophila OR13a; [7]) [%] | activation at 10 µM (Drosophila OR13a; [8]) [%] | activation at 100 µM (Drosophila OR13a; [9]) [%] | OR13a response (VUAA1-normalized) at 1 μM (Drosophila OR13a; VOC concentration 1 μM) | OR13a response (VUAA1-normalized) at 10 μM (Drosophila OR13a; VOC concentration 10 μM) | OR13a response (VUAA1-normalized) at 100 μM (Drosophila OR13a; VOC concentration 100 μM) | DF norm AVERAGE OR13a (Drosophila OR13a; [4]) | DF norm AVERAGE OR13a (Drosophila OR13a; [5]) | DF norm AVERAGE OR13a (Drosophila OR13a; [6]) | activation at 1 µM (Drosophila OR10a; [10]) [%] | activation at 10 µM (Drosophila OR10a; [11]) [%] | further results
Cc1ccccc1C [o-xylene] | 0 | 0 | 0 | 0.00 | 0.00 | 0.00 | 0 | 0 | 0 | 0 | 0 | 1.83 | 0.00 | 0.00 | 0.00 | 0 | 0 | 0 | – | – | –
CCCCCCCCCCCCCC [tetradecane] | – | – | – | 0.11 | 0.00 | 0.08 | – | – | – | 2.63 | 1.68 | 0 | 0.00 | 0.00 | 0.00 | – | – | – | 11 | 4.22 | activation at 100 µM (Drosophila OR10a; [12]): 8%; DF norm AVERAGE OR10a (Drosophila OR10a; ligand concentration 1 (unit not given), […]): 0.1095; DF norm AVERAGE OR10a (Drosophila OR10a; [13]): 0; DF norm AVERAGE OR10a (Drosophila OR10a; ligand concentration 100 (unit not given), […]): 0.08392; DF norm AVERAGE OR13a (Drosophila OR13a; ligand concentration 1 (unit not given), 0.05 threshold, values below shown as 0): 0; DF norm AVERAGE OR13a (Drosophila OR13a; [13]): 0; DF norm AVERAGE OR13a (Drosophila OR13a; ligand concentration 100 (unit not given), 0.05 threshold, values below shown as 0): 0
Cc1cccc(C)c1 [m-xylene] | 0 | 0 | 2 | 0.00 | 0.00 | 0.00 | 0 | 0 | 0 | 0 | 0 | 4 | 0.00 | 0.00 | 0.00 | 0 | 0 | 0 | – | – | –
CC1=CCC2CC1C2(C)C (stereo not drawn) [alpha-pinene] | 5 | 0 | 7.44 | – | – | – | 0 | 0 | 0.07438 | 0 | 0 | 1.73 | – | – | – | 0 | 0 | 0 | – | – | activation at 1 µM (Drosophila OR10a; [14]): 0%; activation at 10 µM (Drosophila OR10a; [15]): 0%; activation at 100 µM (Drosophila OR10a; [16]): 7.44%; activation at 1 µM (Drosophila OR13a; [17]): 0%; activation at 10 µM (Drosophila OR13a; [18]): 0%; activation at 100 µM (Drosophila OR13a; [19]): 0%
CCCCCCCO [1-heptanol] | – | – | – | – | – | – | – | – | – | 2 | 15 | 22 | – | – | – | – | – | – | 1.56 | 6.57 | activation at 100 µM (Drosophila OR10a; [12]): 0%; activation at 1 µM (Drosophila OR10a; [14]): 0%; activation at 10 µM (Drosophila OR10a; [15]): 6.57%; activation at 100 µM (Drosophila OR10a; [16]): 0%; activation at 1 µM (Drosophila OR13a; [17]): 0%; activation at 10 µM (Drosophila OR13a; [18]): 15%; activation at 100 µM (Drosophila OR13a; [19]): 22%; DF norm AVERAGE OR13a (Drosophila OR13a; [20]): 0; DF norm AVERAGE OR13a (Drosophila OR13a; [21]): 0.145; DF norm AVERAGE OR13a (Drosophila OR13a; [22]): 0.219
CCCOC(C)=O [propyl acetate] | – | – | – | 0.00 | 0.09 | 0.00 | 0 | 0.08914 | 0 | 0 | 0 | 0 | 0.00 | 0.00 | 0.00 | 0 | 0 | 0 | 0 | 9 | activation at 100 µM (Drosophila OR10a; [12]): 0%
C=C1[C@H]2CC[C@@H]3[C@H]2C(C)(C)CCC[C@]13C [(+)-longifolene] | – | – | – | – | – | – | – | – | – | – | – | – | – | – | – | – | – | – | – | – | OR10a Average response (VUAA1-normalized) (Drosophila OR10a; [23]): 0.08; OR10a Average response (VUAA1-normalized) (Drosophila OR10a; [24]): 0.0537; OR10a Average response (VUAA1-normalized) (Drosophila OR10a; [25]): 0.028; OR10a response (VUAA1-normalized response) (Drosophila OR10a; VOC concentration 1 μM): 0.08; OR10a response (VUAA1-normalized response) (Drosophila OR10a; VOC concentration 10 μM): 0.0537; OR10a response (VUAA1-normalized response) (Drosophila OR10a; VOC concentration 100 μM): 0.00; DF norm AVERAGE OR10a (Drosophila OR10a; [21]): 0.05372; OR13a Average response (VUAA1-normalized) (Drosophila OR13a; [23]): 0.00; OR13a Average response (VUAA1-normalized) (Drosophila OR13a; [24]): 0.037; OR13a Average response (VUAA1-normalized) (Drosophila OR13a; [25]): 0.00; OR13a response (VUAA1-normalized response) (Drosophila OR13a; VOC concentration 1 μM): 0.00; OR13a response (VUAA1-normalized response) (Drosophila OR13a; VOC concentration 10 μM): 0.00; OR13a response (VUAA1-normalized response) (Drosophila OR13a; VOC concentration 100 μM): 0.00; DF norm AVERAGE OR13a (Drosophila OR13a; [20]): 0; DF norm AVERAGE OR13a (Drosophila OR13a; [21]): 0; DF norm AVERAGE OR13a (Drosophila OR13a; [22]): 0
CC/C=C\CCO [Z-3-hexenol] | – | – | – | 0.17 | 0.19 | 0.10 | – | – | – | – | – | – | 0.00 | 0.06 | 0.00 | – | – | – | – | – | –
